Assay results from patent publication US20260169012A1, “WHOLE BLOOD CONTROL SAMPLE SYSTEMS AND METHOD OF PREPARING AND USING THE SAME” (Perosphere Technologies Inc., priority 2020, published 2026).
Read-outs that look alike come from different tables or passages of the source.

Experiments:
[1] = tested on: surrogate whole blood control; test: Clotting time of surrogate whole blood control on PoC Coagulometer, benzamidine in lyophilizate (Example 2); set-up: species or system horse, sheep; details: for Clotting time: activated with 22 mM calcium chloride
Protocol: Plasma was prepared by mixing sheep plasma and horse plasma at a mixing ratio of 1:9. Sheep fibrinogen solution (45.72 mg/mL in 20 mM sodium citrate-HCl, pH 7.4) was diluted to 40 mg/mL with saline. Plasma base was further prepared by mixing 77% (w/v) plasma and 23% (w/v) sheep fibrinogen solution (40 mg/mL). Whole blood control was prepared by resuspending 35% (w/v) 2% glutaraldehyde-fixed horse red blood cells in 65% (w/v) plasma base, with addition of rabbit brain cephalin to a final concentration of 0.144 mg/mL. Benzamidine of varying concentrations were added to the preparation. The whole blood control was then freeze-dried in glass vials. To test the effect of benzamidine in lyophilizate on clotting time, the freeze-dried surrogate whole blood control was reconstituted in a diluent solution to half of its original volume, incubated at room temperature for 6 minutes, and mixed by swirling the glass vial gently for an additional 1 minute. The control was then activated by addition of 22 mM calcium chloride at the volume ratio of 1:1, followed by six times of rapid inversion. The samples were tested on Perosphere Technologies' PoC Coagulometers immediately after activation.

[2] = tested on: surrogate whole blood control; test: Clotting time of surrogate whole blood control on PoC Coagulometer, benzamidine in activation solution (Example 4); set-up: species or system horse, sheep; details: for Clotting time: 22 mM CaCl2
Protocol: (§1) Plasma was prepared by mixing sheep plasma and horse plasma at a mixing ratio of 1:9. Sheep fibrinogen solution (45.72 mg/mL in 20 mM sodium citrate-HCl, pH 7.4) was diluted to 40 mg/mL with saline. Plasma base was further prepared by mixing 77% (w/v) plasma and 23% (w/v) sheep fibrinogen solution (40 mg/mL). Whole blood control was prepared by resuspending 35% (w/v) 3% glutaraldehyde-fixed horse red blood cells in 65% (w/v) plasma base, with addition of rabbit brain cephalin to a final concentration of 0.144 mg/mL. The whole blood control was then freeze-thawed once and freeze-dried in glass vials. To test the effect of benzamidine concentration in activation solution on clotting time, the freeze-dried surrogate whole blood control was reconstituted in a diluent solution to half of its original volume, incubated at room temperature for 6 minutes, and mixed by swirling the glass vial gently for an additional 1 minute. The control was then activated by addition of an activation solution containing 22 mM CaCl2) and varying concentrations of benzamidine at the volume ratio of 1:1, followed by six times of rapid inversion. The samples were tested on Perosphere Technologies' PoC Coagulometers immediately after activation.

[3] = tested on: surrogate whole blood control
Protocol: as §1, with “mg/mL by” for “mg/mL with”, “(w/v) 2%” for “(w/v) 3%”, “of calcium chloride” for “of benzamidine”, “of calcium chloride” for “of an activation”, “solution of” for “solution containing 22 mM CaCl2) and”, “concentrations” for “concentrations of benzamidine”

Row | SMILES | Response of clotting time to benzamidine concentration in lyophilizate (dose-response curve) ([1]; 0-2.2 mM in lyophilizate, FIG. 1) | Clotting time ([1]; benzamidine concentration in lyophilizate 1.1 mM) | Clotting time ([1]; benzamidine concentration in lyophilizate 2.2 mM) | Response of clotting time to benzamidine concentration in activation solution ([2]; 0-6.6 mM in activation solution, FIG. 2) | Clotting time ([2]; benzamidine concentration in activation solution 1.1 mM) | Clotting time ([2]; benzamidine concentration in activation solution 2.2 mM) | Clotting time ([2]; benzamidine concentration in activation solution 4.4 mM) | Clotting time ([2]; benzamidine concentration in activation solution 6.6 mM) | Clotting time ([3]; CaCl2 concentration in activation solution 14 mM) | Clotting time ([3]; CaCl2 concentration in activation solution 22 mM) | Clotting time ([3]; CaCl2 concentration in activation solution 30 mM) | Clotting time ([3]; CaCl2 concentration in activation solution 40 mM)
1 | N=C(N)c1ccccc1 [Benzamidine, benzamidine] | linear | 339.33 s | 495.00 s | linear response | 206.00 s | 249.00 s | 357.67 s | 422.50 s | – | – | – | –
2 | [Ca+2].[Cl-].[Cl-] [CaCl2, calcium chloride] | – | – | – | – | – | – | – | – | 199.00 s | 154.00 s | 166.00 s | 203.33 s
